For the test, the system named is Mus musculus. The test is described as follows: Analgesic activity was determined after subcutaneous administration in mice using Eddy hot plate assay or Nilsen assay. Format: functional. Particulars: sc.

A word on the ED50: it is the dose that gives a 50% effect, or the effect in half of the subjects. Read a low ED50 as greater potency. In turn, `COc1cccc(C23CCCN(C)C(CC2)C3)c1.O=C(O)C(=O)O` (stereo not drawn) returned a 50% effective dose (ED50) of 5.7 mg/kg. In the case of `CN1CCCC2(c3ccccc3)CCC1C2.O=C(O)C(=O)O` (stereo not drawn) it was 11.7 mg/kg; in that of `Br.CN1CCCC2(c3cccc(O)c3)CCC1C2` (stereo not drawn), 16.2 mg/kg; in that of `Br.Oc1cccc(C23CCCN(CCc4ccccc4)C(CC2)C3)c1` (stereo not drawn), 4.5 mg/kg.

As to `Br.C=CCN1CCCC2(c3cccc(OC)c3)CCC1C2` (stereo not drawn), it took a dose of 20 mg/kg to reach the 50% effect level (ED50). In the case of `Br.COc1cccc(C23CCCNC(CC2)C3)c1` (stereo not drawn) it was 4 mg/kg; in that of `Br.COc1cccc(C23CCCN(CCc4ccccc4)C(CC2)C3)c1` (stereo not drawn), 10.9 mg/kg. Consider `COc1ccc2c3c1O[C@H]1[C@@H](O)C=C[C@H]4[C@@H](C2)N(C)CC[C@@]341.COc1ccc2c3c1O[C@H]1[C@@H](O)C=C[C@H]4[C@@H](C2)N(C)CC[C@@]341.O.O=P(O)(O)O.O=P(O)(O)O` [CODEINE PHOSPHATE], for which the ED50 amounted to 6.8 mg/kg.

For the origin of these results see ChEMBL document CHEMBL1121990, “Synthesis and pharmacological activity of 6-aryl-2-azabicyclo[4.2.1]nonanes” (1982).
